Data taken from patent US6737383B1, “Herbicidal oxadiazolidines” (priority 1999, dated 2004).

What was measured:
[1] = test system: surinam grass; assay: Test B pre/postemergence surinam grass; type: in vivo, Brachiaria decumbens
How it was run: (§1)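 Test chemicals in a non-phytotoxic solvent mixture with surfactant were sprayed preemergence onto planted seeds and postemergence onto plants 2 to 18 cm tall (1- to 4-leaf stage). After twelve to sixteen days in a greenhouse, injury was visually rated against untreated controls from 0 (no effect) to 10 (complete control).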

[2] = test system: cocklebur; assay: Test B pre/postemergence cocklebur; type: in vivo, Xanthium strumarium
How it was run: as §1

[3] = test system: corn; assay: Test B pre/postemergence corn; type: in vivo, Zea mays
How it was run: as §1

[4] = test system: giant foxtail; assay: Test B pre/postemergence giant foxtail; type: in vivo, Setaria faberii
How it was run: as §1

[5] = test system: morningglory; assay: Test B pre/postemergence morningglory; type: in vivo, Ipomoea hederacea
How it was run: as §1

[6] = test system: pigweed; assay: Test B pre/postemergence pigweed; type: in vivo, Amaranthus retroflexus
How it was run: as §1

[7] = test system: rape; assay: Test B pre/postemergence rape; type: in vivo, Brassica napus
How it was run: as §1

[8] = test system: soybean; assay: Test B pre/postemergence soybean; type: in vivo, Glycine max
How it was run: as §1

[9] = test system: sugar beet; assay: Test B pre/postemergence sugar beet; type: in vivo, Beta vulgaris
How it was run: as §1

[10] = test system: velvetleaf; assay: Test B pre/postemergence velvetleaf; type: in vivo, Abutilon theophrasti
How it was run: as §1

[11] = test system: wheat; assay: Test B pre/postemergence wheat; type: in vivo, Triticum aestivum
How it was run: as §1

[12] = test system: wild oat; assay: Test B pre/postemergence wild oat; type: in vivo, Avena fatua
How it was run: as §1

[13] = test system: rice; assay: Test B flood test rice; type: in vivo, Oryza sativa; settings: for Rice plant response rating: scale of 0 to 10 where 0 is no effect and 10 is complete control
How it was run: (§2)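 Read-out is a visual response score from 0 (no effect) to 10 (complete control), assigned by comparison with untreated controls. Treatment was applied at the 2-leaf stage, and plants stayed in the greenhouse for twelve to sixteen days before scoring.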

[14] = test system: smallflower flatsedge; assay: Test B flood test smallflower flatsedge; type: in vivo, Cyperus difformis; settings: for S. Flatsedge plant response rating: scale of 0 to 10 where 0 is no effect and 10 is complete control
How it was run: as §2

[15] = test system: duck salad; assay: Test B flood test duck salad; type: in vivo, Heteranthera limosa; settings: for Plant response rating, Ducksalad: scale 0 to 10, 0 is no effect, 10 is complete control; for Ducksalad plant response rating: scale of 0 to 10 where 0 is no effect and 10 is complete control
How it was run: as §2

[16] = test system: bamyardgrass; assay: Test B flood test barnyardgrass; type: in vivo, Echinochloa crus-galli; settings: for Plant response rating, Barnyardgrass: scale 0 to 10, 0 is no effect, 10 is complete control; for Barnyardgrass plant response rating: scale of 0 to 10 where 0 is no effect and 10 is complete control
How it was run: as §2

[17] = Postemergence, Rate 125 g/ha, scale 0 to 10, 0 is no effect, 10 is complete control
[18] = Postemergence, Rate 250 g/ha, scale 0 to 10, 0 is no effect, 10 is complete control
[19] = Postemergence, Rate 500 g/ha, scale of 0 to 10 where 0 is no effect and 10 is complete control
[20] = Preemergence, Rate 62 g/ha, scale 0 to 10 (0 no effect, 10 complete control)
[21] = Preemergence, Rate 125 g/ha, scale of 0 to 10 where 0 is no effect and 10 is complete control
[22] = Rate 62 g/ha, Postemergence, scale of 0 to 10 where 0 is no effect and 10 is complete control
[23] = Preemergence, Rate 250 g/ha, scale 0 to 10, 0 is no effect, 10 is complete control
[24] = Preemergence, Rate 500 g/ha, scale 0 to 10, 0 is no effect, 10 is complete control
[25] = Postemergence section (flood test species), Rate 500 g/ha
[26] = Rate 62 g/ha, Postemergence (flood test species)
[27] = flood test species, listed under Postemergence, Rate 250 g/ha, scale 0 to 10, 0 is no effect, 10 is complete control
[28] = Postemergence (flood test), Rate 125 g/ha
[29] = flood test species, listed under Postemergence, Rate 250 g/ha

Q: With `CCOC(=O)C=C(Cn1c(=O)on(C(=O)N(c2ccc(F)cc2)C(C)C)c1=O)OCC` [Compound 396] as the compound, how does the “Plant response rating, B. signalgrass” value [1, 17] read?
A: 0

Q: What about the “Plant response rating, B. signalgrass” value [1, 18] of the same compound?
A: 0

Q: And the “B. signalgrass plant response rating” value [1, 19]?
A: 0

Q: And the “Plant response rating, B. signalgrass” value [1, 20]?
A: 0

Q: What about the “Plant response rating, B. signalgrass” value [1, 21] of the same compound?
A: 0

Q: And the “B. signalgrass plant response rating” value ([1]; Preemergence, Rate 250 g/ha, scale of 0 to 10 where 0 is no effect and 10 is complete control)?
A: 3

Q: And the “B. signalgrass plant response rating” value ([1]; Preemergence, Rate 500 g/ha, scale of 0 to 10 where 0 is no effect and 10 is complete control)?
A: 5

Q: What about the “B. signalgrass plant response rating” value [1, 22] of the same compound?
A: 0

Q: What about the “Plant response rating, Cocklebur” value [2, 17] of the same compound?
A: 0

Q: And the “Plant response rating, Cocklebur” value [2, 18]?
A: 0

Q: What about the “Cocklebur plant response rating” value [2, 19] of the same compound?
A: 0

Q: What about the “Plant response rating, Cocklebur” value [2, 20] of the same compound?
A: 0

Q: And the “Plant response rating, Cocklebur” value [2, 21]?
A: 0

Q: What about the “Cocklebur plant response rating” value [2, 23] of the same compound?
A: 0

Q: What about the “Cocklebur plant response rating” value [2, 24] of the same compound?
A: 0

Q: What about the “Cocklebur plant response rating” value [2, 22] of the same compound?
A: 0

Q: What about the “Plant response rating, Corn” value [3, 17] of the same compound?
A: 0

Q: And the “Plant response rating, Corn” value [3, 18]?
A: 0

Q: What about the “Corn plant response rating” value [3, 19] of the same compound?
A: 0

Q: What about the “Plant response rating, Corn” value [3, 20] of the same compound?
A: 0

Q: And the “Plant response rating, Corn” value [3, 21]?
A: 0

Q: And the “Corn plant response rating” value [3, 23]?
A: 0

Q: And the “Corn plant response rating” value [3, 24]?
A: 0

Q: And the “Corn plant response rating” value [3, 22]?
A: 0

Q: And the “Plant response rating, Giant foxtail” value [4, 17]?
A: 0

Q: What about the “Plant response rating, Giant foxtail” value [4, 18] of the same compound?
A: 2

Q: What about the “Giant foxtail plant response rating” value [4, 19] of the same compound?
A: 2

Q: What about the “Plant response rating, Giant foxtail” value [4, 20] of the same compound?
A: 2

Q: And the “Plant response rating, Giant foxtail” value [4, 21]?
A: 10

Q: And the “Giant foxtail plant response rating” value [4, 23]?
A: 10

Q: What about the “Giant foxtail plant response rating” value [4, 24] of the same compound?
A: 10

Q: What about the “Giant foxtail plant response rating” value [4, 22] of the same compound?
A: 0

Q: What about the “Plant response rating, Morningglory” value [5, 18] of the same compound?
A: 8

Q: And the “Morningglory plant response rating” value [5, 19]?
A: 8

Q: What about the “Plant response rating, Morningglory” value [5, 20] of the same compound?
A: 0

Q: What about the “Plant response rating, Morningglory” value [5, 21] of the same compound?
A: 0

Q: And the “Morningglory plant response rating” value [5, 23]?
A: 0

Q: And the “Morningglory plant response rating” value [5, 24]?
A: 0

Q: What about the “Morningglory plant response rating” value [5, 22] of the same compound?
A: 0

Q: What about the “Plant response rating, Redroot pigweed” value [6, 18] of the same compound?
A: 0

Q: And the “Redroot pigweed plant response rating” value [6, 19]?
A: 0

Q: And the “Plant response rating, Redroot pigweed” value [6, 20]?
A: 0

Q: And the “Plant response rating, Redroot pigweed” value [6, 21]?
A: 0

Q: And the “Redroot pigweed plant response rating” value [6, 23]?
A: 4

Q: And the “Redroot pigweed plant response rating” value [6, 24]?
A: 8

Q: What about the “Redroot pigweed plant response rating” value [6, 22] of the same compound?
A: 0

Q: What about the “Plant response rating, Rape” value [7, 18] of the same compound?
A: 0

Q: What about the “Rape plant response rating” value [7, 19] of the same compound?
A: 6

Q: What about the “Plant response rating, Rape” value [7, 20] of the same compound?
A: 0

Q: And the “Plant response rating, Rape” value [7, 21]?
A: 0

Q: And the “Rape plant response rating” value [7, 23]?
A: 0

Q: And the “Rape plant response rating” value [7, 24]?
A: 0

Q: And the “Rape plant response rating” value [7, 22]?
A: 0

Q: What about the “Plant response rating, Soybean” value [8, 18] of the same compound?
A: 3

Q: And the “Soybean plant response rating” value [8, 19]?
A: 6

Q: And the “Plant response rating, Soybean” value [8, 20]?
A: 0

Q: And the “Plant response rating, Soybean” value [8, 21]?
A: 0

Q: What about the “Soybean plant response rating” value [8, 23] of the same compound?
A: 0

Q: What about the “Soybean plant response rating” value [8, 24] of the same compound?
A: 0

Q: What about the “Soybean plant response rating” value [8, 22] of the same compound?
A: 2

Q: And the “Plant response rating, Sugarbeets” value [9, 18]?
A: 0

Q: What about the “Sugarbeets plant response rating” value [9, 19] of the same compound?
A: 3

Q: What about the “Plant response rating, Sugarbeets” value [9, 20] of the same compound?
A: 0

Q: And the “Plant response rating, Sugarbeets” value [9, 21]?
A: 0

Q: And the “Sugarbeets plant response rating” value [9, 23]?
A: 0

Q: And the “Sugarbeets plant response rating” value [9, 24]?
A: 2

Q: And the “Sugarbeets plant response rating” value [9, 22]?
A: 0

Q: And the “Plant response rating, Velvetleaf” value [10, 18]?
A: 0

Q: What about the “Velvetleaf plant response rating” value [10, 19] of the same compound?
A: 0

Q: And the “Plant response rating, Velvetleaf” value [10, 20]?
A: 0

Q: And the “Plant response rating, Velvetleaf” value [10, 21]?
A: 0

Q: And the “Velvetleaf plant response rating” value [10, 23]?
A: 0

Q: What about the “Velvetleaf plant response rating” value [10, 24] of the same compound?
A: 0

Q: What about the “Velvetleaf plant response rating” value [10, 22] of the same compound?
A: 0

Q: What about the “Wheat plant response rating” value [11, 19] of the same compound?
A: 0

Q: And the “Plant response rating, Wheat” value [11, 20]?
A: 0

Q: What about the “Plant response rating, Wheat” value [11, 21] of the same compound?
A: 0

Q: And the “Wheat plant response rating” value [11, 23]?
A: 0

Q: And the “Wheat plant response rating” value [11, 24]?
A: 0

Q: And the “Wheat plant response rating” value [11, 22]?
A: 0

Q: What about the “Wild oats plant response rating” value [12, 19] of the same compound?
A: 0

Q: What about the “Plant response rating, Wild oats” value [12, 20] of the same compound?
A: 0

Q: And the “Plant response rating, Wild oats” value [12, 21]?
A: 0

Q: And the “Wild oats plant response rating” value [12, 23]?
A: 2

Q: What about the “Wild oats plant response rating” value [12, 24] of the same compound?
A: 4

Q: And the “Wild oats plant response rating” value [12, 22]?
A: 0

Q: And the “Rice plant response rating” value [13, 25]?
A: 0

Q: What about the “Rice plant response rating” value [13, 26] of the same compound?
A: 0

Q: What about the “Plant response rating, Rice” value [13, 27] of the same compound?
A: 0

Q: And the “S. Flatsedge plant response rating” value [14, 25]?
A: 0

Q: What about the “S. Flatsedge plant response rating” value [14, 26] of the same compound?
A: 0

Q: And the “Plant response rating, S. Flatsedge” value [14, 27]?
A: 0

Q: What about the “Plant response rating, Ducksalad” value [15, 28] of the same compound?
A: 0

Q: What about the “Ducksalad plant response rating” value [15, 25] of the same compound?
A: 0

Q: And the “Ducksalad plant response rating” value [15, 26]?
A: 0

Q: And the “Plant response rating, Ducksalad” value [15, 29]?
A: 0

Q: What about the “Plant response rating, Barnyardgrass” value [16, 28] of the same compound?
A: 0

Q: And the “Barnyardgrass plant response rating” value [16, 25]?
A: 0

Q: And the “Barnyardgrass plant response rating” value [16, 26]?
A: 0

Q: What about the “Plant response rating, Barnyardgrass” value [16, 29] of the same compound?
A: 0
